We go through 23 compounds from PMC11870037 (Molecules, 2024).

Read-outs that look alike come from different tables or passages of the source.

One data set has as its target T1, SERT (Rattus norvegicus, UniProt P31652).
T1 construct: [3H]-paroxetine, rat cerebral cortex; from tissue; host or cells: rat cerebral cortex (membranes / crude synaptosomes)
Briefly: biochemical. The note with it: for potency ratio among SERT, NET, and H3: ratio of binding Ki values for SERT. Format: binding.

Data set [1] addresses T2, NET (Rattus norvegicus, UniProt Q63380). Briefly: biochemical. Particulars: Receptor Affinity Ki ± SEM NET, rat hippocampal membrane, [3H]nisoxetine; means ± SEM of three experiments.
For a further data set, the target named is adrenergic α1 receptor. Nature of the data set: Adrenergic α1 receptor binding assay ([3H]prazosin). The note with it: rat cerebral cortex, means ± SEM of three experiments, read-out: Receptor Affinity Ki ± SEM α1.
In a further data set the target is T3, hERG potassium channel (Homo sapiens, UniProt Q12809).
T3 construct: expressed in transfected cells; host or cells: HEK 293
Nature of the data set: hERG whole-cell patch clamp in HEK 293 cells. In kind it is cell-based.

The target in data set [2] is T2, NET. Briefly: Monoamine uptake transporter assay, [3H]NE uptake by NET. Format: biochemical. The note with it: 10 μM, n = 3.
In a further data set the target is recombinant hH3R (Homo sapiens, UniProt Q9Y5N1). Briefly: H3 receptor intrinsic activity assay ([35S]GTPγS binding). Format: biochemical. Particulars: 10 μM, n = 3. In general terms: GTPγS resists hydrolysis and so accumulates on activated G proteins.
Where [3] appears, read: rat cerebral cortex, [3H]-paroxetine, means ± SEM of three experiments, read-out: Receptor Affinity Ki ± SEM SERT.

T2 sequence (Q63380 1-617): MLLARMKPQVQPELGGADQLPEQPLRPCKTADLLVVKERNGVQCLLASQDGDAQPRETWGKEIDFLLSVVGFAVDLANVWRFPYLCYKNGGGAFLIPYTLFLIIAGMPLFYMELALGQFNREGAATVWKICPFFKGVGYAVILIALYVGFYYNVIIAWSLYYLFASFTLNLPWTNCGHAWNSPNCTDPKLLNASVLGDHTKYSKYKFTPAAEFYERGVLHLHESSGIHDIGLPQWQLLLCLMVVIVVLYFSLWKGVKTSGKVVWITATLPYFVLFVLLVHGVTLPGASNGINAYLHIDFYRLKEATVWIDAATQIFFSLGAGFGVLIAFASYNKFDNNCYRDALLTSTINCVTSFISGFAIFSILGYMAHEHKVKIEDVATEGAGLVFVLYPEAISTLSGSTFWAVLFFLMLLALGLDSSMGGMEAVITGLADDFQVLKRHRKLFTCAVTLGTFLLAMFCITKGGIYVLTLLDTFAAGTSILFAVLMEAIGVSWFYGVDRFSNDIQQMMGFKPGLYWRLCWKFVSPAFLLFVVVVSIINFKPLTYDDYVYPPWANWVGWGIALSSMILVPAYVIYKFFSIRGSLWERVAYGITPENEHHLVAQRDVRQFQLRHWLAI
T1 sequence (P31652 whole entry): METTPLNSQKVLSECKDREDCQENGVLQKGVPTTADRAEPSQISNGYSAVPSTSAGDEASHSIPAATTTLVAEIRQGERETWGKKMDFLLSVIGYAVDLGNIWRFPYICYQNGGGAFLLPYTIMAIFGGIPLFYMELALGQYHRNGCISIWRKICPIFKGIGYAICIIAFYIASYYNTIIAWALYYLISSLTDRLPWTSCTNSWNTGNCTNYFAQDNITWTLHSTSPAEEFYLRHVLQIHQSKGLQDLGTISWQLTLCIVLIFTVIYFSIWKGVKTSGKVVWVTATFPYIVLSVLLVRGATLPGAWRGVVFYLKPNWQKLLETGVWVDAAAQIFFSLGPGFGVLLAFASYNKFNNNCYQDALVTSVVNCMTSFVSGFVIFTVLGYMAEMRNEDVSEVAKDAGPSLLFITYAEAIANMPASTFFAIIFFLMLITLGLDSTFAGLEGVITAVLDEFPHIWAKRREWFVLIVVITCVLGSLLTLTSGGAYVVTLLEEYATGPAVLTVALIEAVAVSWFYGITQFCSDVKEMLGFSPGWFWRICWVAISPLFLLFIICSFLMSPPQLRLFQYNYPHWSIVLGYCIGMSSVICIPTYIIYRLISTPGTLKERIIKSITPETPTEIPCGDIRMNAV
T3 sequence (Q12809 whole entry): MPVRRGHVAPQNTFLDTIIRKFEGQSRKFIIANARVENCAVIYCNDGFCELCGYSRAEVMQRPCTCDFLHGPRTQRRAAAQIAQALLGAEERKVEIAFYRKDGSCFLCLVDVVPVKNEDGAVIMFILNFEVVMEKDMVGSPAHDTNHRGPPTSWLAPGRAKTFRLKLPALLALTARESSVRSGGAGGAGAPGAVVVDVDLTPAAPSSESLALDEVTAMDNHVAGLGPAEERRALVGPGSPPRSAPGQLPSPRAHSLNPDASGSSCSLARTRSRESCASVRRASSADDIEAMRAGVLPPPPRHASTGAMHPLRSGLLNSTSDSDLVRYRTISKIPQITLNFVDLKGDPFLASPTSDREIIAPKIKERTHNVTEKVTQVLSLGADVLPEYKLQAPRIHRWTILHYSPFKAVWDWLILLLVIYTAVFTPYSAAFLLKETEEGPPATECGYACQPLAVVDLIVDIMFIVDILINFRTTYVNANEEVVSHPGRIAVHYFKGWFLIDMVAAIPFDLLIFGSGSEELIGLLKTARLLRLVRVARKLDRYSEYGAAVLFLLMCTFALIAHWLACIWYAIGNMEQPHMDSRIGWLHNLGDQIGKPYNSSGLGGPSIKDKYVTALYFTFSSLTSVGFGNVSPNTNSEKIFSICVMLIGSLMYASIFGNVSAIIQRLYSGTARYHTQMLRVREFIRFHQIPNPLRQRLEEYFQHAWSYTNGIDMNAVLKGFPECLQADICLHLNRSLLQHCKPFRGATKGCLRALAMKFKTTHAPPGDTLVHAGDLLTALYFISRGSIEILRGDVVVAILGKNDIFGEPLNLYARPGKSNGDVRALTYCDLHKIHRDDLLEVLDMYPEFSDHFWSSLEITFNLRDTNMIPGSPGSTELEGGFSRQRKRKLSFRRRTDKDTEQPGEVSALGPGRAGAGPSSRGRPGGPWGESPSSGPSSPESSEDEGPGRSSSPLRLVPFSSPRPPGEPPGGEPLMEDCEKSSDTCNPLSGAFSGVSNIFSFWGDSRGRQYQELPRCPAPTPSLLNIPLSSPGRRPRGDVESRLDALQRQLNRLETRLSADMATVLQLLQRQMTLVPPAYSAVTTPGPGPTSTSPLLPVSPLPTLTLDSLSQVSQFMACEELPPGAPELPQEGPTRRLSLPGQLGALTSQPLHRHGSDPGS
Chain of recombinant hH3R (Q9Y5N1 whole entry): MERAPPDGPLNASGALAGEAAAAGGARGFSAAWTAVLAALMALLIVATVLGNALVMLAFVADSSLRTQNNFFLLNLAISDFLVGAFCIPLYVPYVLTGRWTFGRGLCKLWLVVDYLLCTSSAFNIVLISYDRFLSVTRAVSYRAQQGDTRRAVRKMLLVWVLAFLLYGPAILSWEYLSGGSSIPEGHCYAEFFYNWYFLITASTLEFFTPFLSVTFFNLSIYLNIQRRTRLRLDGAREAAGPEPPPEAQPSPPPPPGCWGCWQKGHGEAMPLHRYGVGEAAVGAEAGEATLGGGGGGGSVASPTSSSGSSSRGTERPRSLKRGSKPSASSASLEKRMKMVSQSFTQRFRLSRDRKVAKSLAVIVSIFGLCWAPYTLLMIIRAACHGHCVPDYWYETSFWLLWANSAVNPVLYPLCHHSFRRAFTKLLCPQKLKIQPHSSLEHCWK

Regarding `CC(C)N1CCN(CCCOc2ccc(C(CCN(C)C)Oc3cccc4c3OCO4)cc2)CC1.O=C(O)C(=O)O` (stereo not shown) [Compound 11f, 3-(benzo[d][1,3]dioxol-4-yloxy)-3-(4-(3-(4-isopropylpiperazin-1-yl)propoxy)phenyl)-N,N-dimethylpropan-1-amine oxalate], the melting point (in general, the temperature, or range, at which the solid turns liquid) lay in the range of 160 to 162 °C. In addition, the Ki – broadly, the equilibrium dissociation constant of an inhibitor or competing ligand from its target – at SERT (setting [3]) is 35.7 ± 3.1 nM. The affinity at NET [1], expressed as Ki, was 57.9 ± 6.4 nM.

For the compound `CN(C)CCC(Oc1cccc2c1OCO2)c1cccc(OCCCN2CCOCC2)c1.O=C(O)C(=O)O` (stereo not shown) [Compound 11j, 3-(benzo[d][1,3]dioxol-4-yloxy)-N,N-dimethyl-3-(3-(3-morpholinopropoxy)phenyl)propan-1-amine oxalate], the melting point was 95 to 98 °C. Moreover, the Ki at SERT (setting [3]) was 465 ± 39.8 nM. On NET [1], this compound gave a Ki of 153 ± 12.7 nM.

Regarding `CN(C)CCC(Oc1cccc2c1OCO2)c1ccc(OCCCN2CC3CCCC3C2)cc1.O=C(O)C(=O)O` (stereo not shown) [Compound 11g, 3-(benzo[d][1,3]dioxol-4-yloxy)-3-(4-(3-(hexahydrocyclopenta[c]pyrrol-2(1H)-yl)propoxy)phenyl)-N,N-dimethylpropan-1-amine oxalate], the melting point lay in the range of 110 to 112 °C. For the same compound, the Ki on SERT (setting [3]) was found to be 31.3 ± 4 nM. Affinity at NET [1] was put at a Ki of 48.2 ± 4.2 nM.

For the compound `CC1CC(C)CN(CCCOc2ccc(C(CCN(C)C)Oc3cccc4c3OCO4)cc2)C1.O=C(O)C(=O)O` (stereo not shown) [Compound 11s, 3-(benzo[d][1,3]dioxol-4-yloxy)-3-(4-(3-(3,5-dimethylpiperidin-1-yl)propoxy)phenyl)-N,N-dimethylpropan-1-amine oxalate], the melting point was in the range of 140 to 142 °C. Besides, on SERT (setting [3]), the Ki was 30.3 ± 2.6 nM. The compound also came in with a Ki on NET [1] of 25.1 ± 2.8 nM.

On to `CC(C)N1CCN(CCCOc2cccc(C(CCN(C)C)Oc3cccc4c3OCO4)c2)CC1.O=C(O)C(=O)O` (stereo not shown) [Compound 11k, 3-(benzo[d][1,3]dioxol-4-yloxy)-3-(3-(3-(4-isopropylpiperazin-1-yl)propoxy)phenyl)-N,N-dimethylpropan-1-amine oxalate], for which the melting point was in the range of 185 to 186 °C. Besides, the Ki at SERT (setting [3]) turned out to be 163 ± 17.6 nM. Moreover, the affinity at NET [1], expressed as Ki, was 111 ± 10.3 nM.

As to `CCN(CC)CCCOc1ccc(C(CCN(C)C)Oc2cccc3c2OCO3)cc1.O=C(O)C(=O)O` (stereo not shown) [Compound 11m, 3-(benzo[d][1,3]dioxol-4-yloxy)-3-(4-(3-(diethylamino)propoxy)phenyl)-N,N-dimethylpropan-1-amine oxalate], the melting point was 98 to 100 °C. Besides, the Ki at SERT (setting [3]) was 28.4 ± 11.3 nM. In addition, the Ki at NET [1] was 85.2 ± 9.1 nM.

The compound `CN(C)CCC(Oc1cccc2c1OCO2)c1ccc(OCCCN2CCCC2)cc1.O=C(O)C(=O)O` (stereo not shown) [Compound 11a, 3-(benzo[d][1,3]dioxol-4-yloxy)-N,N-dimethyl-3-(4-(3-(pyrrolidin-1-yl)propoxy)phenyl)propan-1-amine oxalate] yielded a melting point of 138 to 140 °C. The Ki at SERT (setting [3]) is 10.3 ± 0.9 nM. For the same compound, the “potency ratio among SERT, NET, and H3” value on SERT is listed as under 10 fold. For the same compound, the Ki at adrenergic α1 receptor amounted to 428 ± 35.3 nM. Also, at hERG potassium channel, the IC50 (as a rule, the concentration that inhibits the measured activity by half) was 819 ± 90.4 nM. The same compound displayed a Ki at NET [1] of 19.2 ± 2.3 nM.

Compound `CN(C)CCCOc1ccc(C(CCN(C)C)Oc2cccc3c2OCO3)cc1.O=C(O)C(=O)O` (stereo not shown) [Compound 11l, 3-(benzo[d][1,3]dioxol-4-yloxy)-3-(4-(3-(dimethylamino)propoxy)phenyl)-N,N-dimethylpropan-1-amine oxalate] yielded a melting point of 121 to 122 °C. Besides, at SERT (setting [3]), the Ki is 17.1 ± 1.6 nM. Moreover, the affinity at NET [1] corresponds to a Ki of 115 ± 12.3 nM.

In turn, `CN(C)CCC(Oc1cccc2c1OCO2)c1ccc(OCCCCN2CCCCC2)cc1.O=C(O)C(=O)O` (stereo not shown) [Compound 11o, 3-(benzo[d][1,3]dioxol-4-yloxy)-N,N-dimethyl-3-(4-(4-(piperidin-1-yl)butoxy)phenyl)propan-1-amine oxalate] returned a melting point of 169 to 171 °C. In addition, the Ki at SERT (setting [3]) worked out at 49.2 ± 4.8 nM. This compound came in with a Ki at NET [1] of 64.6 ± 5.5 nM.

In turn, `CC1CCN(CCCOc2ccc(C(CCN(C)C)Oc3cccc4c3OCO4)cc2)CC1.O=C(O)C(=O)O` (stereo not shown) [Compound 11r, 3-(benzo[d][1,3]dioxol-4-yloxy)-N,N-dimethyl-3-(4-(3-(4-methylpiperidin-1-yl)propoxy)phenyl)propan-1-amine oxalate] gave a melting point of 126 to 128 °C. In addition, the Ki on SERT (setting [3]) was 27.1 ± 1.6 nM. For the same compound, the affinity on NET [1] corresponds to a Ki of 38.3 ± 3.5 nM.

As to `CC1CCCN(CCCOc2ccc(C(CCN(C)C)Oc3cccc4c3OCO4)cc2)C1.O=C(O)C(=O)O` (stereo not shown) [Compound 11q, 3-(benzo[d][1,3]dioxol-4-yloxy)-N,N-dimethyl-3-(4-(3-(3-methylpiperidin-1-yl)propoxy)phenyl)propan-1-amine oxalate], the melting point lay within 130 to 132 °C. For the same compound, the Ki on SERT (setting [3]) came out at 12.1 ± 1.6 nM. Moreover, the “potency ratio among SERT, NET, and H3” value at SERT is listed as under 10 fold. Also, the Ki on adrenergic α1 receptor is 307 ± 28.1 nM. On hERG potassium channel, this compound displayed an IC50 of 780 ± 68.5 nM. Further, affinity on NET [1] was put at a Ki of 20.7 ± 2.1 nM.

The compound `CC1CCCCN1CCCOc1ccc(C(CCN(C)C)Oc2cccc3c2OCO3)cc1.O=C(O)C(=O)O` (stereo not shown) [Compound 11p, 3-(benzo[d][1,3]dioxol-4-yloxy)-N,N-dimethyl-3-(4-(3-(2-methylpiperidin-1-yl)propoxy)phenyl)propan-1-amine oxalate] displayed a melting point of 129 to 131 °C. In addition, the Ki at SERT (setting [3]) is 20.6 ± 1.9 nM. Moreover, affinity at NET [1] was put at a Ki of 35.4 ± 3.2 nM.

As to `CN(C)CCC(Oc1cccc2c1OCO2)c1ccc(OCCCN2CCOCC2)cc1.O=C(O)C(=O)O` (stereo not shown) [Compound 11c, 3-(benzo[d][1,3]dioxol-4-yloxy)-N,N-dimethyl-3-(4-(3-morpholinopropoxy)phenyl)propan-1-amine oxalate], the melting point was in the range of 169 to 170 °C. Besides, the Ki on SERT (setting [3]) is 43.2 ± 3.8 nM. The compound also gave a Ki at NET [1] of 32.6 ± 2.7 nM.

Compound `CN(C)CCC(Oc1cccc2c1OCO2)c1ccc(OCCCN2CCC(Cl)CC2)cc1.O=C(O)C(=O)O` (stereo not shown) [Compound 11u, 3-(benzo[d][1,3]dioxol-4-yloxy)-3-(4-(3-(4-chloropiperidin-1-yl)propoxy)phenyl)-N,N-dimethylpropan-1-amine oxalate] returned a melting point of 145 to 146 °C. The Ki at SERT (setting [3]) amounted to 39.5 ± 4 nM. The compound further registered a Ki at NET [1] of 50.2 ± 4.9 nM.

Regarding `CNCCC(Oc1ccccc1OC)c1ccccc1` (stereo not shown) [Nisoxetine, reference compound], the inhibition (usually the percentage by which the read-out fell short of the control) at 10 µM at NET [2] came out at 99.8 ± 1.9%.

Regarding `CN(C)CCC(Oc1cccc2c1OCO2)c1cccc(OCCCN2CCCCC2)c1.O=C(O)C(=O)O` (stereo not shown) [Compound 11i, 3-(benzo[d][1,3]dioxol-4-yloxy)-N,N-dimethyl-3-(3-(3-(piperidin-1-yl)propoxy)phenyl)propan-1-amine oxalate], the melting point lay within 81 to 83 °C. For the same compound, the Ki on SERT (setting [3]) was 236 ± 26.1 nM. The Ki on NET [1] stood at 105 ± 9.8 nM.

With `Clc1ccc(CCCOCCCN2CCCCC2)cc1` [Pitolisant, reference compound], the Ki on SERT (Receptor Affinity Ki ± SEM SERT) and on NET [1] was over 1000 nM in each case. Also, the inhibition at 10 µM on recombinant hH3R worked out at 99.3 ± 2.5%.

Take `CN(C)CCC(Oc1cccc2c1OCO2)c1cccc(OCCCN2CCCC2)c1.O=C(O)C(=O)O` (stereo not shown) [Compound 11h, 3-(benzo[d][1,3]dioxol-4-yloxy)-N,N-dimethyl-3-(3-(3-(pyrrolidin-1-yl)propoxy)phenyl)propan-1-amine oxalate]: the melting point was in the range of 104 to 106 °C. Further, the inhibition constant Ki on SERT (setting [3]) came out at 192 ± 18.8 nM. At NET [1], the Ki was 144 ± 13.5 nM.

Turning to `CN(C)CCC(Oc1cccc2c1OCO2)c1ccc(OCCCN2CCN(C)CC2)cc1.O=C(O)C(=O)O` (stereo not shown) [Compound 11d, 3-(benzo[d][1,3]dioxol-4-yloxy)-N,N-dimethyl-3-(4-(3-(4-methylpiperazin-1-yl)propoxy)phenyl)propan-1-amine oxalate], the melting point lay within 155 to 156 °C. Moreover, at SERT (setting [3]), the Ki turned out to be 52.3 ± 2.8 nM. On NET [1], the affinity, expressed as Ki, was 86.8 ± 9.1 nM.

`CN(C)CCC(Oc1cccc2c1OCO2)c1ccc(OCCN2CCCCC2)cc1.O=C(O)C(=O)O` (stereo not shown) [Compound 11n, 3-(benzo[d][1,3]dioxol-4-yloxy)-N,N-dimethyl-3-(4-(2-(piperidin-1-yl)ethoxy)phenyl)propan-1-amine oxalate] registered a melting point of 116 to 118 °C. Also, on SERT (setting [3]), the Ki was determined as 26.1 ± 2.3 nM. Moreover, at NET [1], the Ki is 37.3 ± 4.2 nM.

For the compound `CCN1CCN(CCCOc2ccc(C(CCN(C)C)Oc3cccc4c3OCO4)cc2)CC1.O=C(O)C(=O)O` (stereo not shown) [Compound 11e, 3-(benzo[d][1,3]dioxol-4-yloxy)-3-(4-(3-(4-ethylpiperazin-1-yl)propoxy)phenyl)-N,N-dimethylpropan-1-amine oxalate], the melting point is 187 to 189 °C. Besides, the Ki on SERT (setting [3]) came out at 39.6 ± 3.3 nM. The Ki at NET [1] was 66.9 ± 5.1 nM.

`CN(C)CCC(Oc1cccc2c1OCO2)c1ccc(OCCCN2CCC(F)CC2)cc1.O=C(O)C(=O)O` (stereo not shown) [Compound 11t, 3-(benzo[d][1,3]dioxol-4-yloxy)-3-(4-(3-(4-fluoropiperidin-1-yl)propoxy)phenyl)-N,N-dimethylpropan-1-amine oxalate]: the melting point is 134 to 136 °C. For the same compound, the inhibition constant (Ki) on SERT (setting [3]) amounted to 34.2 ± 2.8 nM. The compound also came in with a Ki at NET [1] of 42.5 ± 4.6 nM.

Take `CN(C)CCC(Oc1cccc2c1OCO2)c1ccc(OCCCN2CCC(C#N)CC2)cc1.O=C(O)C(=O)O` (stereo not shown) [Compound 11v, 1-(3-(4-(1-(benzo[d][1,3]dioxol-4-yloxy)-3-(dimethylamino)propyl)phenoxy)propyl)piperidine-4-carbonitrile oxalate]: the melting point was 148 to 151 °C. Further, the Ki at SERT (setting [3]) worked out at 60.5 ± 5.7 nM. At NET [1], this compound registered a Ki of 48.6 ± 6.4 nM.
